The values that follow come from PubChem BioAssay (NCI).

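Assay format: 96-well plates, 48-hour exposure. At the GI50, growth is halved. Definition used: TGI = concentration required for complete inhibition of growth.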

Some test systems named below: ACHN renal; SF-539 CNS; MDA-MB-435; SW-620 colon; K-562 leukemia; 786-0 renal; NCI-H460 lung; A549 NSCLC; MDA-MB-231 breast; CCRF-CEM leukemia.
Holding throughout (assay): growth of human tumour cells (NCI), 48 h

For `C=C1C(=O)O[C@H]2[C@H]1CC/C(COC(=O)NCCc1ccc(OC)cc1)=C\CC[C@@]1(C)O[C@@H]21`, the GI50 in the assay on ACHN renal was 1.72 µM; in the assay on SF-539 CNS, 1.79 µM; with MDA-MB-435, 3.53 µM; with SW-620 colon it was 2.51 µM; in the assay with K-562 leukemia it was 3.08 µM; with 786-0 renal, 1.76 µM. For the same compound, the GI50 was 12.2 µM in the assay on NCI-H460 lung, 13.2 µM in the assay with A549 NSCLC, 2.02 µM with MDA-MB-231 breast and 1.98 µM in the assay on CCRF-CEM leukemia. Besides, the TGI in the assay on ACHN renal came to 3.55 µM; in the assay on SF-539 CNS it was 4.21 µM; in the assay on MDA-MB-435, 11.8 µM; in the assay on SW-620 colon, 6.97 µM; in the assay on K-562 leukemia, 10.3 µM; in the assay on 786-0 renal it was 4.22 µM. Moreover, the TGI amounted to 35.2 µM in the assay on NCI-H460 lung, 28.4 µM with A549 NSCLC, 5.17 µM in the assay with MDA-MB-231 breast and 7.74 µM with CCRF-CEM leukemia.

For the compound `CCCCCCN1C(=O)/C(=c2\sc3n(c2=O)C2C(NN=3)N(CC)C(=O)N2CC)c2ccccc21` (centres undefined), the GI50 was 1.51 µM in the assay with ACHN renal; 0.831 µM in the assay with SF-539 CNS; 0.972 µM in the assay with MDA-MB-435; 1.89 µM in the assay on K-562 leukemia; 1.6 µM in the assay on 786-0 renal; 1.47 µM in the assay with A549 NSCLC. In addition, the GI50 was 1.77 µM in the assay on MDA-MB-231 breast and 2.5 µM with CCRF-CEM leukemia. Also, the TGI in the assay with ACHN renal was above 50 µM; in the assay with SF-539 CNS, 1.59 µM; with MDA-MB-435, 2.16 µM; in the assay on K-562 leukemia, above 50 µM; with 786-0 renal, above 50 µM; in the assay with A549 NSCLC it was above 50 µM. Besides, the TGI is 10.4 µM in the assay on MDA-MB-231 breast and above 50 µM in the assay with CCRF-CEM leukemia.

With `Cc1ccc(NC(=O)c2ccnc(C(F)(F)F)c2)cc1-c1cc(OCCO)nc(N2CCOCC2)c1`, the GI50 in the assay on ACHN renal is 2.99 µM; in the assay with SF-539 CNS it was 2.55 µM; with MDA-MB-435, 0.391 µM; in the assay on SW-620 colon, 1.55 µM; with K-562 leukemia, 1.86 µM; in the assay on 786-0 renal, 6.29 µM. For the same compound, the GI50 in the assay with NCI-H460 lung was 2.81 µM; in the assay on A549 NSCLC, 3.21 µM; in the assay with MDA-MB-231 breast, 0.688 µM; in the assay on CCRF-CEM leukemia, 3.33 µM. The TGI in the assay with ACHN renal was 80.1 µM; in the assay with SF-539 CNS it was 11.8 µM; with MDA-MB-435, 1.81 µM; with SW-620 colon it was 63.8 µM; in the assay on K-562 leukemia, 41.6 µM; with 786-0 renal, 38.2 µM. In addition, the TGI in the assay on NCI-H460 lung was 13.5 µM; with A549 NSCLC it was 28.9 µM; in the assay with MDA-MB-231 breast, 17.5 µM; with CCRF-CEM leukemia, above 100 µM.

Regarding `COc1ccc(NC2=C(Sc3nc(C)cc(C)n3)C(=O)N(Cc3ccccc3)C2=O)cc1Cl`, the GI50 with ACHN renal is above 160 µM; in the assay on SF-539 CNS, above 160 µM; in the assay with MDA-MB-435, 158 µM; in the assay on SW-620 colon, above 160 µM; in the assay with K-562 leukemia, above 160 µM; in the assay with 786-0 renal, 49.2 µM. The GI50 with NCI-H460 lung is above 160 µM; in the assay with A549 NSCLC, above 160 µM; with MDA-MB-231 breast, 127 µM; in the assay with CCRF-CEM leukemia, 13.9 µM. Besides, the TGI with ACHN renal, in the assay on SF-539 CNS, in the assay with MDA-MB-435, in the assay on SW-620 colon, with K-562 leukemia and with 786-0 renal was above 160 µM each time. The TGI in the assay with NCI-H460 lung, in the assay on A549 NSCLC, with MDA-MB-231 breast and with CCRF-CEM leukemia was above 160 µM each time.

Take `O=c1c2cc(Br)ccc2oc2ccc(Br)cc12`: the TGI with ACHN renal, in the assay on SF-539 CNS, with MDA-MB-435, in the assay on SW-620 colon, in the assay with K-562 leukemia and in the assay with 786-0 renal was above 100 µM in each case. The TGI in the assay with NCI-H460 lung, in the assay with A549 NSCLC, in the assay with MDA-MB-231 breast and with CCRF-CEM leukemia was above 100 µM in each case.

`CC1C(=O)N=C2C(=CN(Cc3ccccc3)c3ccccc32)C(=O)N1C` (centres undefined): the TGI in the assay with ACHN renal, in the assay with SF-539 CNS, in the assay with MDA-MB-435, with SW-620 colon, in the assay on K-562 leukemia and in the assay with 786-0 renal was above 100 µM each time. For the same compound, the TGI with NCI-H460 lung, in the assay with A549 NSCLC, in the assay on MDA-MB-231 breast and in the assay on CCRF-CEM leukemia was above 100 µM each time.

On to `COC(=O)Nc1ccc2ccc3c(NC(=O)OC)ccc4ccc1c2c43` (tested in a mixture with another compound), for which the GI50 in the assay with ACHN renal was 6.68 µM; in the assay on SF-539 CNS it was 6.76 µM; in the assay with SW-620 colon it was 3.9 µM; in the assay on K-562 leukemia, 3.29 µM; with 786-0 renal it was 12.2 µM; with NCI-H460 lung, 4.79 µM. Moreover, the results for the GI50 in the assay on A549 NSCLC, in the assay on MDA-MB-231 breast and with CCRF-CEM leukemia were 7.78 µM, 7.95 µM and 6.04 µM, respectively. Besides, the TGI in the assay with ACHN renal was 15 µM; in the assay on SF-539 CNS it was 17.8 µM; with SW-620 colon, above 50 µM; in the assay with K-562 leukemia, above 50 µM; in the assay with 786-0 renal, 41.2 µM; in the assay with NCI-H460 lung, above 50 µM. Moreover, the results for the TGI in the assay with A549 NSCLC, in the assay with MDA-MB-231 breast and with CCRF-CEM leukemia were above 50 µM, 35.7 µM and above 50 µM, respectively.

In the case of `Clc1nc(Cl)c2ncn(C/C=C\Cn3cnc4c(Cl)nc(Cl)nc43)c2n1`, the GI50 with ACHN renal is 1.97 µM; with SF-539 CNS it was 2.49 µM; with MDA-MB-435, 1.88 µM; in the assay on SW-620 colon it was 1.41 µM; in the assay with K-562 leukemia, 3.1 µM; in the assay with 786-0 renal, 2.6 µM. For the same compound, the GI50 is 3.24 µM in the assay with NCI-H460 lung, 3.67 µM in the assay with A549 NSCLC, 2.72 µM with MDA-MB-231 breast and 0.739 µM with CCRF-CEM leukemia. Moreover, the TGI is 3.46 µM in the assay on ACHN renal; 5.97 µM with SF-539 CNS; 3.77 µM with MDA-MB-435; 2.99 µM with SW-620 colon; above 100 µM with K-562 leukemia; 6.88 µM with 786-0 renal. In addition, the TGI in the assay on NCI-H460 lung amounted to 11.2 µM; with A549 NSCLC, 39.4 µM; in the assay on MDA-MB-231 breast, 5.95 µM; in the assay with CCRF-CEM leukemia, 2.36 µM.
